# Tested on: C57BL/6 male mice fed a high-fat diet
# Test: Diet-induced obesity (DIO) in mice, subchronic s.c. treatment
# Assay type: in vivo, mouse
# Settings: for Fat mass / Food efficiency / Lean mass / Σ Fat depots / Body weight gain / Cumulative food intake / Glucose / Insulin: 2 weeks; for Body weight gain / Cumulative food intake: difference day 35 vs day 21; for Glucose / Insulin: plasma
# Experimental: The effectiveness of selected compounds of the invention, i.e. their subchronic effects, on the energy balance of mice rendered obese by a high-fat diet was investigated.
# Adult C57BL/6 male mice were fed ad libitum with either chow or a high-fat diet (60% of the calorie content from fat) for 5 weeks.
# C57BL/6 mice fed with a high-fat diet readily develop obesity and represent a widely used model for investigating human obesity.
# One-third of the dose was injected in the morning and two-third in the evening.
# Body weight and food intake were monitored every day during the experiment. Body composition (lean and fat mass) was assessed using dual energy x-ray absorptiometry (DEXA) on day 0, 13 and 27. Blood was also sampled at sacrifice for the determination of plasma glucose, insulin and triglycerides.
compound,measurement,setting,value
"CC(C)(N)C(=O)N[C@H](Cc1c[nH]c2ccccc12)c1nnc(CCCc2c[nH]c3ccccc23)n1Cc1ccccc1 [Compound 9, (R)-N-(1-(5-(3-(1H-indol-3-yl)propyl)-4-benzyl-4H-1,2,4-triazol-3-yl)-2-(1H-indol-3-yl)ethyl)-2-amino-2-methylpropanamide]",Fat mass,1.5 mg/kg per day s.c.,7.9 g
same,Food efficiency,1.5 mg/kg per day s.c.,1.30 mg/kJ
same,Lean mass,1.5 mg/kg per day s.c.,20.2 g
same,Σ Fat depots,1.5 mg/kg per day s.c.,1137 mg
same,Body weight gain,1.5 mg/kg per day s.c.,1.03 g
same,Cumulative food intake,1.5 mg/kg per day s.c.,793 kJ
same,size of the fat depots (in words),6 mg/kg per day and 24 mg/kg per day,reduced
same,body weight gain (in words),"6 mg/kg per day and 24 mg/kg per day, two weeks of treatment",significantly decreased
same,Fat mass,6.0 mg/kg per day s.c.,5.8 g
same,Food efficiency,6.0 mg/kg per day s.c.,0.25 mg/kJ
same,Lean mass,6.0 mg/kg per day s.c.,21.2 g
same,Σ Fat depots,6.0 mg/kg per day s.c.,791 mg
same,Body weight gain,6.0 mg/kg per day s.c.,0.20 g
same,Cumulative food intake,6.0 mg/kg per day s.c.,809 kJ
same,Fat mass,24 mg/kg per day s.c.,5.7 g
same,Food efficiency,24 mg/kg per day s.c.,-0.68 mg/kJ
same,Lean mass,24 mg/kg per day s.c.,20.5 g
same,Σ Fat depots,24 mg/kg per day s.c.,792 mg
same,Body weight gain,24 mg/kg per day s.c.,-0.54 g
same,Cumulative food intake,24 mg/kg per day s.c.,790 kJ
same,Glucose,1.5 mg/kg per day s.c.,14.9 mmol/L
same,Insulin,1.5 mg/kg per day s.c.,63.8 pmol/L
same,Glucose,6.0 mg/kg per day s.c.,15.6 mmol/L
same,Insulin,6.0 mg/kg per day s.c.,57.4 pmol/L
same,Glucose,24 mg/kg per day s.c.,13.1 mmol/L
same,Insulin,24 mg/kg per day s.c.,52.0 pmol/L

# Source: US20090042905A1, “TRIAZOLE DERIVATIVES AS LIGANDS OF G-PROTEIN COUPLED RECEPTORS” (AETERNA ZENTARIS GmbH, priority 2007, published 2009)
